System: 885512-296-R-J2-PDC complex spheroid growth, % test/control
Test: Anticancer human tumor 885512-296-R-J2-PDC patient-derived breast carcinoma cell line growth inhibition [Asc]
Settings: for IC50: curve of first compound; for viability, T/C: stronger effect = lower value
Summary of the method: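 Stromal components (HUVEC and hMSC) are co-assembled with the cancer cells into multicellular spheroids. Drugs are then added singly or paired, at concentrations falling by half-log increments from a clinically achievable maximum, capped at 10 microM without known Cmax.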

[1] = second compound 0.1 µM, first compound 0.0316 µM
[2] = second compound 0.1 µM, first compound 0.1 µM
[3] = second compound 0.1 µM, first compound 0.316 µM
[4] = second compound 0.1 µM, first compound 1 µM
[5] = second compound 0.316 µM, first compound 0.0316 µM
[6] = second compound 0.316 µM, first compound 0.1 µM
[7] = second compound 0.316 µM, first compound 0.316 µM
[8] = second compound 0.316 µM, first compound 1 µM
[9] = second compound 1 µM, first compound 0.0316 µM
[10] = second compound 1 µM, first compound 0.1 µM
[11] = second compound 1 µM, first compound 0.316 µM
[12] = second compound 1 µM, first compound 1 µM
[13] = second compound 3.16 µM, first compound 0.0316 µM
[14] = second compound 3.16 µM, first compound 0.1 µM
[15] = second compound 3.16 µM, first compound 0.316 µM
[16] = second compound 3.16 µM, first compound 1 µM
[17] = second compound 10 µM, first compound 0.0316 µM
[18] = second compound 10 µM, first compound 0.1 µM
[19] = second compound 10 µM, first compound 0.316 µM
[20] = second compound 10 µM, first compound 1 µM
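Also: spheroids exposed to compounds for seven days.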
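For viability, T/C in this document: 100% = DMSO vehicle control wells.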

SMILES: C#Cc1c(F)ccc2cc(O)cc(-c3ncc4c(N5CC6CCC(C5)N6)nc(OCC56CCCN5CC(F)C6)nc4c3F)c12 (stereo not given) + Cc1c(S(C)(=O)=O)c(-c2cc(F)cc(N3CCN(c4ccc(NS(=O)(=O)c5ccc(NC(CCN6CCC(C(=O)OCCCP(=O)(O)O)CC6)CSc6ccccc6)c(S(=O)(=O)C(F)(F)F)c5)cc4)CC3)c2)c(-c2ccc(Cl)cc2)n1C(C)C
- IC50 (second compound 0.1 µM): > 10000 nM
- IC50 (second compound 0.316 µM): > 10000 nM
- IC50 (second compound 1 µM): > 10000 nM
- IC50 (second compound 3.16 µM): > 10000 nM
- IC50 (second compound 10 µM): > 10000 nM
- viability, T/C [1]: 96.9%
- viability, T/C [2]: 78.9%
- viability, T/C [3]: 85.1%
- viability, T/C [4]: 77.4%
- viability, T/C (second compound 0.1 µM, first compound 3.16 µM): 74.1%
- viability, T/C (second compound 0.1 µM, first compound 10 µM): 70.9%
- viability, T/C [5]: 96.8%
- viability, T/C [6]: 105%
- viability, T/C [7]: 90.9%
- viability, T/C [8]: 72.4%
- viability, T/C (second compound 0.316 µM, first compound 3.16 µM): 95.4%
- viability, T/C (second compound 0.316 µM, first compound 10 µM): 71%
- viability, T/C [9]: 88.3%
- viability, T/C [10]: 82.9%
- viability, T/C [11]: 93%
- viability, T/C [12]: 66.6%
- viability, T/C (second compound 1 µM, first compound 3.16 µM): 86%
- viability, T/C (second compound 1 µM, first compound 10 µM): 66.9%
- viability, T/C [13]: 88.3%
- viability, T/C [14]: 112%
- viability, T/C [15]: 82.7%
- viability, T/C [16]: 76.5%
- viability, T/C (second compound 3.16 µM, first compound 3.16 µM): 79.8%
- viability, T/C (second compound 3.16 µM, first compound 10 µM): 76.4%
- viability, T/C [17]: 115%
- viability, T/C [18]: 112%
- viability, T/C [19]: 101%
- viability, T/C [20]: 117%
- viability, T/C (second compound 10 µM, first compound 3.16 µM): 103%
- viability, T/C (second compound 10 µM, first compound 10 µM): 51.4%

SMILES: CNC(C)C(=O)NC1CN(S(=O)(=O)c2cccc(S(=O)(=O)N3CCC4CCC(C(=O)NC(c5ccccc5)c5ccccc5)N4C(=O)C(NC(=O)C(C)NC)C3)c2)CCC2CCC(C(=O)NC(c3ccccc3)c3ccccc3)N2C1=O (stereo not given) + Cc1c(S(C)(=O)=O)c(-c2cc(F)cc(N3CCN(c4ccc(NS(=O)(=O)c5ccc(NC(CCN6CCC(C(=O)OCCCP(=O)(O)O)CC6)CSc6ccccc6)c(S(=O)(=O)C(F)(F)F)c5)cc4)CC3)c2)c(-c2ccc(Cl)cc2)n1C(C)C
- IC50 (second compound 0.1 µM): > 1000 nM
- IC50 (second compound 0.316 µM): > 1000 nM
- IC50 (second compound 1 µM): > 1000 nM
- IC50 (second compound 3.16 µM): > 1000 nM
- IC50 (second compound 10 µM): > 1000 nM
- viability, T/C (second compound 0.1 µM, first compound 0.00316 µM): 78.5%
- viability, T/C (second compound 0.1 µM, first compound 0.01 µM): 89.6%
- viability, T/C [1]: 89.2%
- viability, T/C [2]: 101%
- viability, T/C [3]: 116%
- viability, T/C [4]: 88.8%
- viability, T/C (second compound 0.316 µM, first compound 0.00316 µM): 80.1%
- viability, T/C (second compound 0.316 µM, first compound 0.01 µM): 92.6%
- viability, T/C [5]: 107%
- viability, T/C [6]: 93.5%
- viability, T/C [7]: 106%
- viability, T/C [8]: 109%
- viability, T/C (second compound 1 µM, first compound 0.00316 µM): 90%
- viability, T/C (second compound 1 µM, first compound 0.01 µM): 100%
- viability, T/C [9]: 112%
- viability, T/C [10]: 102%
- viability, T/C [11]: 107%
- viability, T/C [12]: 109%
- viability, T/C (second compound 3.16 µM, first compound 0.00316 µM): 94.7%
- viability, T/C (second compound 3.16 µM, first compound 0.01 µM): 92.7%
- viability, T/C [13]: 99.2%
- viability, T/C [14]: 102%
- viability, T/C [15]: 112%
- viability, T/C [16]: 95.2%
- viability, T/C (second compound 10 µM, first compound 0.00316 µM): 112%
- viability, T/C (second compound 10 µM, first compound 0.01 µM): 103%
- viability, T/C [17]: 91.5%
- viability, T/C [18]: 98%
- viability, T/C [19]: 100%
- viability, T/C [20]: 105%

SMILES: Cc1nc(N2CCC3(CC2)COC(C)C3N)c(CO)nc1Sc1ccnc(N)c1Cl (stereo not given) + Cc1c(S(C)(=O)=O)c(-c2cc(F)cc(N3CCN(c4ccc(NS(=O)(=O)c5ccc(NC(CCN6CCC(C(=O)OCCCP(=O)(O)O)CC6)CSc6ccccc6)c(S(=O)(=O)C(F)(F)F)c5)cc4)CC3)c2)c(-c2ccc(Cl)cc2)n1C(C)C
- IC50 (second compound 0.1 µM): 275 nM
- IC50 (second compound 0.316 µM): 275 nM
- IC50 (second compound 1 µM): 172 nM
- IC50 (second compound 3.16 µM): 167 nM
- IC50 (second compound 10 µM): > 3000 nM
- viability, T/C (second compound 0.1 µM, first compound 0.00949 µM): 83.7%
- viability, T/C (second compound 0.1 µM, first compound 0.03 µM): 67.7%
- viability, T/C (second compound 0.1 µM, first compound 0.0949 µM): 58%
- viability, T/C (second compound 0.1 µM, first compound 0.3 µM): 50.4%
- viability, T/C (second compound 0.1 µM, first compound 0.949 µM): 42.1%
- viability, T/C (second compound 0.1 µM, first compound 3 µM): 32.4%
- viability, T/C (second compound 0.316 µM, first compound 0.00949 µM): 76.5%
- viability, T/C (second compound 0.316 µM, first compound 0.03 µM): 63.7%
- viability, T/C (second compound 0.316 µM, first compound 0.0949 µM): 62.7%
- viability, T/C (second compound 0.316 µM, first compound 0.3 µM): 46.2%
- viability, T/C (second compound 0.316 µM, first compound 0.949 µM): 42.8%
- viability, T/C (second compound 0.316 µM, first compound 3 µM): 37%
- viability, T/C (second compound 1 µM, first compound 0.00949 µM): 76.7%
- viability, T/C (second compound 1 µM, first compound 0.03 µM): 60.2%
- viability, T/C (second compound 1 µM, first compound 0.0949 µM): 59.1%
- viability, T/C (second compound 1 µM, first compound 0.3 µM): 41.8%
- viability, T/C (second compound 1 µM, first compound 0.949 µM): 42.6%
- viability, T/C (second compound 1 µM, first compound 3 µM): 34.7%
- viability, T/C (second compound 3.16 µM, first compound 0.00949 µM): 94.5%
- viability, T/C (second compound 3.16 µM, first compound 0.03 µM): 67.4%
- viability, T/C (second compound 3.16 µM, first compound 0.0949 µM): 56.8%
- viability, T/C (second compound 3.16 µM, first compound 0.3 µM): 45.4%
- viability, T/C (second compound 3.16 µM, first compound 0.949 µM): 39.5%
- viability, T/C (second compound 3.16 µM, first compound 3 µM): 33.4%
- viability, T/C (second compound 10 µM, first compound 0.00949 µM): 117%
- viability, T/C (second compound 10 µM, first compound 0.03 µM): 110%
- viability, T/C (second compound 10 µM, first compound 0.0949 µM): 96.2%
- viability, T/C (second compound 10 µM, first compound 0.3 µM): 113%
- viability, T/C (second compound 10 µM, first compound 0.949 µM): 95.9%
- viability, T/C (second compound 10 µM, first compound 3 µM): 85.9%
